One block for each substance: values may come before it.
Assays:
[1] = T1 relaxation time of the hyperpolarized product, experimentally determined; type: physicochemical
Procedure: Sub-second carbon imaging is greatly simplified when the signal of interest exceeds the background signal from natural abundance resonances. This is possible when a ^13C hyperpolarized agent is injected. […] Long T1 (in excess of ten seconds) is obtained for ^13C in small molecules at sites where there is no directly attached proton. Deuteration can be used to achieve this (e.g., glucose) and it occurs naturally for carbonyls. Enhancements in excess of 1000 from hyperpolarization are obtained in the first 5 T1 (i.e., imaging and spectroscopy experiment should be accomplished within 100-225 seconds after hyperpolarizing the molecules). For the molecules proposed, the hyperpolarization decays with a time constant of 20-45 seconds (T1 relaxation time of the agent) and therefore long scan times are not feasible. In order to overcome this problem, the inventors have successfully reprogrammed several fast imaging pulse sequences with multinuclear capability (multinuclear pulse sequences, broadband amplifier, and multinuclear coils).
Specifically, the inventors have identified four water soluble biomolecules for hyperpolarization. The four molecules can be either commercially obtained or custom synthesized. In the cases of hyperpolarization by PASADENA, both the precursors and the hydrogenated products are water soluble and the hydrogenation experiments have achieved high yields. T1 times were experimentally determined.

[2] = DNP hyperpolarization in HyperSense polarizer, 13C NMR decay of magnetization; details: DNP hyperpolarized
Text: FIG. 9. ^13C NMR spectrum of DNP hyperpolarized CD3 ^13COO^−Na using OX63 radical (Sample 1). The SNR from the spectral sequence depicted in FIG. 9 are shown in the corresponding table.
FIG. 10. 13C NMR spectrum of hyperpolarized CD3 ^13COO^−Na^+ using Finland radical (Sample 2). The SNR from the spectral sequence depicted in FIG. 10 are shown in the corresponding table.
C. A sample of the proposed molecule, Sodium ^13Cl-acetate-d3, was hyperpolarized in water with two different electron donors (FIGS. 9 & 10) in a DNP HyperSense polarizer, and the time course of the decay of the magnetization studied. The SNR obtained from the first spectrum collected from polarized sample 2 is clearly less than that obtained from sample 1, showing that Sodium acetate has a preference for the more polar radical OX63. Both OX63 and Finland are triaryl based radicals and are commercially available form Oxford Instruments, UK. Clearly, the inventors' molecule can render over 10,000 fold signal enhancement by DNP with very long T1 time. The polarization will survive around 325 seconds (5 T1). This allows a large enough time (>5 minutes) window to effectively monitor the first six minutes of uptake and metabolism of hyperpolarized sodium acetate within the glial cells of the rat brain by ^13C NMR.

T1 of the Product ([1]; Table 2, product of PASADENA or DNP hyperpolarization): 40 s
Substance: ^13C1-^13C5 deuterated glutamine

experimentally determined T1 ([1]; 1-13C of perdeuterated glucose): 20 s | time window of observing the transfer of polarization (5 T1) ([1]; hyperpolarized glucose metabolized to TCA cycle metabolites): ~100 s
Substance: 1-^13C glucose [perdeuterated 1-^13C of glucose]

Substance: Sodium ^13Cl-acetate-d3
polarization survival time (5 T1) [2]: around 325 seconds
